Experimental data published in publication PMC9239083, “C6 Hydroxymethyl-Substituted Carbapenem MA-1-206 Inhibits the Major Acinetobacter baumannii Carbapenemase OXA-23 by Impeding Deacylation” (mBio, 2022).

Biological target: OXA-23 (Acinetobacter baumannii, UniProt Q9L4P2)
Assay: X-ray crystal structures (seven soak time points); Ki by nitrocefin competition kinetics with purified enzyme
Type: biochemical
From the text: X-ray crystal structures (seven soak time points); Ki by nitrocefin competition kinetics with purified enzyme on OXA-23 | The compound is covalently attached to the Ser79 side chain and anchored by six hydrogen bonds.

OXA-23, sequence (Q9L4P2 18-273): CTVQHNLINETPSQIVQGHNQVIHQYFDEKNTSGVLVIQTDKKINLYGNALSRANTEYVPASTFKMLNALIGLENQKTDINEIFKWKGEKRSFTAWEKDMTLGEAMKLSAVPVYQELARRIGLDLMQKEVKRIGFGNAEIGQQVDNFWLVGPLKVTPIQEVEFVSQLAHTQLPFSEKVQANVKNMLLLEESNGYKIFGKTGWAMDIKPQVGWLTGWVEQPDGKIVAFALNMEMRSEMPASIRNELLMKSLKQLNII

Compound: CN(C)C(=O)[C@@H]1C[C@H](SC2=C(C(=O)O)N3C(=O)[C@H](CO)[C@H]3C2)CN1 [MA-1-206]
- Ki: 26 ± 2 nM
